Measured values reported in patent US12458647B2, “Macrocyclic derivative and use thereof” (Guangzhou Joyo Pharmatech Co., Ltd., priority 2022, dated 2025).
Where two headings read alike, the source gives them in different places.

Test system: p-ERK level in GP2D cells
Assay: Detection of p-ERK level in GP2D cells (HTRF)
Assay type: cell-based
Details: 3 hours incubation, read-out: GP2D pERK IC50
From the text: GP2D cell line (DMEM+10% FBS+1% penicillin/streptomycin) was purchased from ECACC; RPMI-1640 medium was purchased from Gibco; fetal bovine serum was purchased from Hyclone; Advanced Phospho-ERK1/2(THR202/TYR204) KIT was purchased from Bioauxilium-Advanced Phospho; ERK1/2(THR202/TYR204) KIT was composed of: Advanced PhosphoERK1/2Eu Cryptate antibody, Advanced PhosphoERK1/2 d2 antibody. Blocking reagent (stock solution 100×), Lysis buffer #1 (stock solution 4×), Detection buffer (ready-to-use), with a storage temperature of ≤−16° C. for all.
(1) The cells were seeded in a white-bottomed 384-well cell culture plate, 8 μL of cell suspension per well, each well containing 7,500 cells. The cell plate was placed in a carbon dioxide incubator and incubated overnight at 37° C.;
(2) The test compound was diluted with 100% DMSO to 3 mM as the first concentration, and then diluted with a pipette to 10 concentrations of 3,000, 1,000, 300, 100, 30, 10, 3, 1, 0.3 and 0.1 μM 2 μL of the compound was taken and added to 198 μL of cell starvation medium, mixed well, 15 μL of compound solution was taken and added to 35 μL of cell starvation medium and mixed well. […]
(5) After incubation, a multilabel plate reader was used to read the HTRF excitation: 320 nm, emission: 615 nm, and 665 nm. […]

Structure (SMILES): CCn1c(-c2cc(N3CCN(C)CC3)cnc2C(C)OC)c2c3cc(ccc31)-c1csc(n1)CC(NC(=O)C1CC1C(F)F)C(=O)N1NC(C(=O)OCC(C)(C)C2)C2CC1C2 (single isomer, unassigned) [Trifluoroacetate of Compound 8A]
- IC50: 0.8 nM

Structure (SMILES): [2H]C([2H])([2H])N1CCN(c2cnc([C@H](C)OC)c(-c3c4c5cc(ccc5n3CC)-c3csc(n3)C[C@H](NC(=O)[C@H]3[C@H](C)[C@@H]3C)C(=O)N3N[C@H](C(=O)OCC(C)(C)C4)C4CC3C4)c2)CC1 [Trifluoroacetate of Compound 12A]
- IC50 (GP2d): 0.2 nM
